Results: patent US10376499B2, “Combination therapy for treatment of resistant bacterial infections” (priority 2014, dated 2019)
Converted amounts (≈) assume the structure as drawn.

Key:
B. pseudomallei K96243 = assay type: in vivo, Burkholderia pseudomallei; details: Balb/c mice, lethal intranasal challenge; therapy from 4 hours post challenge for six consecutive days; FIG. 5
A. baumannii [1] = experiment: MIC of sulbactam+compound 1 versus Unasyn®+compound 1 (Example 2); details: equivalent total amount of sulbactam in both combinations; FIG. 2
A. baumannii [2] = experiment: MIC by broth microdilution (CLSI), panel of 60 A. baumannii clinical isolates (Example 1); details: Acinetobacter baumannii
Pseudomonas aeruginosa = experiment: MIC summary, 600 strains of Pseudomonas aeruginosa (Example 8); details: n = 600 strains; cmpd 1 and SUL each at 4 μg/mL where present
Acinetobacter baumannii = experiment: MIC summary, 600 strains of Acinetobacter baumannii (Example 8); details: n = 600 strains; cmpd 1 and SUL each at 4 μg/mL where present
A. baumannii [3] = experiment: MIC90 of common antibiotics+compound 1, 196 contemporary clinical isolates of A. baumannii (Example 4); details: B-lactam + Cmpd 1 (4 μg/mL)

C[C@H]1c2cccc(O)c2C(=O)C2=C(O)[C@]3(O)C(=O)C(C(N)=O)=C(O)[C@@H](N(C)C)[C@@H]3[C@@H](O)[C@@H]21 [doxycycline]
survivorship (B. pseudomallei K96243): 40%

CC1(C)S[C@@H]2[C@H](NC(=O)[C@H](N)c3ccccc3)C(=O)N2[C@H]1C(=O)O [ampicillin]
effect of ampicillin on efficacy (MIC of Unasyn®+compound 1 versus sulbactam+compound 1) (A. baumannii [1]): no effect on the efficacy

C[C@@H](O)[C@H]1C(=O)N2C(C(=O)O)=C(S[C@@H]3CN[C@H](C(=O)N(C)C)C3)[C@H](C)[C@H]12 [Meropenem, meropenem]
MIC50 (A. baumannii [2]): 16 µg/mL (≈ 41.7 µM) | MIC90 (A. baumannii [2]): 32 µg/mL (≈ 83.4 µM) | MIC (A. baumannii [2]; strain ARC593, OXA-98): 1 µg/mL (≈ 2.61 µM) | MIC (A. baumannii [2]; strain ARC2058, OXA-95): 0.25 µg/mL (≈ 0.652 µM) | MIC (A. baumannii [2]; strain ARC2461, OXA-66, TEM-1): 2 µg/mL (≈ 5.22 µM) | MIC (A. baumannii [2]; strain ARC2462, TEM-1, OXA-66): 4 µg/mL (≈ 10.4 µM) | MIC (A. baumannii [2]; strain ARC2598, OXA*, TEM-1, OXA-113): 8 µg/mL (≈ 20.9 µM) | MIC (A. baumannii [2]; strain ARC2635, OXA-65, OXA-40, TEM-1): > 32 µg/mL | MIC (A. baumannii [2]; strain ARC2636, OXA-65, OXA-40, TEM-1): > 32 µg/mL | MIC (A. baumannii [2]; strain ARC2674, SHV-5, OXA-113): 8 µg/mL (≈ 20.9 µM) | MIC (A. baumannii [2]; strain ARC2675, SHV-5, OXA-113): > 32 µg/mL | MIC (A. baumannii [2]; strain ARC2681, OXA-40, TEM-1, OXA-132): 32 µg/mL (≈ 83.4 µM) | MIC (A. baumannii [2]; strain ARC2682, SHV-5, OXA-113): 32 µg/mL (≈ 83.4 µM) | MIC (A. baumannii [2]; strain ARC2777, OXA-172, TEM-1): 32 µg/mL (≈ 83.4 µM) | MIC (A. baumannii [2]; strain ARC2778, OXA-40, TEM-1, OXA-65): > 32 µg/mL | MIC (A. baumannii [2]; strain ARC2779 (A. baumannii/calcoaceticus complex), OXA-2, VIM-2): 16 µg/mL (≈ 41.7 µM) | MIC (A. baumannii [2]; strain ARC2780 (A. baumannii/calcoaceticus complex), OXA*, OXA-2, IMP-1): 32 µg/mL (≈ 83.4 µM) | MIC (A. baumannii [2]; strain ARC2782, OXA-66, OXA-23, TEM-1, PER-1): 16 µg/mL (≈ 41.7 µM) | MIC (A. baumannii [2]; strain ARC2788, OXA-65, TEM-1): 1 µg/mL (≈ 2.61 µM) | MIC (A. baumannii [2]; strain ARC3484, TEM-1, OXA-23, OXA-64): 32 µg/mL (≈ 83.4 µM) | MIC (A. baumannii [2]; strain ARC3485, OXA-82): 16 µg/mL (≈ 41.7 µM) | MIC (A. baumannii [2]; strain ARC3486, OXA-72, OXA-66, TEM-1): > 32 µg/mL | MIC (A. baumannii [2]; strain ARC3487, OXA-20, OXA-58, OXA-66): 8 µg/mL (≈ 20.9 µM) | MIC (A. baumannii [2]; strain ARC3488, OXA*, OXA-68): 4 µg/mL (≈ 10.4 µM) | MIC (A. baumannii [2]; strain ARC3489, OXA*, OXA-68): 4 µg/mL (≈ 10.4 µM) | MIC (A. baumannii [2]; strain ARC3490, TEM-1+, PSE-2, OXA-69): 0.5 µg/mL (≈ 1.3 µM) | MIC (A. baumannii [2]; strain ARC3491 (A. baumannii/calcoaceticus complex), OXA-215): 2 µg/mL (≈ 5.22 µM) | MIC (A. baumannii [2]; strain ARC3492, OXA-40, OXA-132, TEM-1): > 32 µg/mL | MIC (A. baumannii [2]; strain ARC3493, OXA-40, OXA-66): > 32 µg/mL | MIC (A. baumannii [2]; strain ARC3494, OXA-65): 0.25 µg/mL (≈ 0.652 µM) | MIC (A. baumannii [2]; strain ARC3495, OXA-40, OXA-109): > 32 µg/mL | MIC (A. baumannii [2]; strain ARC3513, TEM-1, OXA-23, OXA-65): 32 µg/mL (≈ 83.4 µM) | MIC (A. baumannii [2]; strain ARC3515, OXA-64, OXA-58): 4 µg/mL (≈ 10.4 µM) | MIC (A. baumannii [2]; strain ARC3657, OXA-130): 2 µg/mL (≈ 5.22 µM) | MIC (A. baumannii [2]; strain ARC3658, OXA-66, PER-1, TEM-1, OXA-23): 32 µg/mL (≈ 83.4 µM) | MIC (A. baumannii [2]; strain ARC3659, OXA-23, OXA*): 8 µg/mL (≈ 20.9 µM) | MIC (A. baumannii [2]; strain ARC3882, OXA-23, NDM-1, OXA-10*): > 32 µg/mL | MIC (A. baumannii [2]; strain ARC5073, OXA-23, TEM-1, OXA-64, PER-1): > 32 µg/mL | MIC (A. baumannii [2]; strain ARC5074, GES*, TEM-1, OXA-51): 8 µg/mL (≈ 20.9 µM) | MIC (A. baumannii [2]; strain ARC5075, SHV-5, OXA-113): 32 µg/mL (≈ 83.4 µM) | MIC (A. baumannii [2]; strain ARC5076, TEM-1, OXA-23, OXA-66): 32 µg/mL (≈ 83.4 µM) | MIC (A. baumannii [2]; strain ARC5077, OXA*, OXA-72): > 32 µg/mL | MIC (A. baumannii [2]; strain ARC5079, OXA-72, OXA-65): > 32 µg/mL | MIC (A. baumannii [2]; strain ARC5080, OXA-71, OXA-40): > 32 µg/mL | MIC (A. baumannii [2]; strain ARC5081, OXA-94, OXA-23): 16 µg/mL (≈ 41.7 µM) | MIC (A. baumannii [2]; strain ARC5082, OXA-66, OXA-23): > 32 µg/mL | MIC (A. baumannii [2]; strain ARC5083, OXA-66, OXA-23): 16 µg/mL (≈ 41.7 µM) | MIC (A. baumannii [2]; strain ARC5084, IMP-4(B), OXA-58, OXA-65): > 32 µg/mL | MIC (A. baumannii [2]; strain ARC5085, OXA*, TEM-1): 8 µg/mL (≈ 20.9 µM) | MIC (A. baumannii [2]; strain ARC5086, OXA*, TEM-1, OXA-72, OXA-66): > 32 µg/mL | MIC (A. baumannii [2]; strain ARC5087, OXA-66, OXA-23): 16 µg/mL (≈ 41.7 µM) | MIC (A. baumannii [2]; strain ARC5088, OXA-20, OXA-58, OXA-66): 8 µg/mL (≈ 20.9 µM) | MIC (A. baumannii [2]; strain ARC5089, PER*, TEM-1, OXA-23, OXA-66): 32 µg/mL (≈ 83.4 µM) | MIC (A. baumannii [2]; strain ARC5091, OXA-82, OXA-23): 32 µg/mL (≈ 83.4 µM) | MIC (A. baumannii [2]; strain ARC5092, OXA-23, OXA-64): 16 µg/mL (≈ 41.7 µM) | MIC50 (Pseudomonas aeruginosa): 0.5 | MIC90 (Pseudomonas aeruginosa): >8 | MIC50 (Acinetobacter baumannii): >8 | MIC90 (Acinetobacter baumannii): >8 | MIC Max (Acinetobacter baumannii): >8 | MIC Min (Acinetobacter baumannii): 0.0599 | MIC90 (A. baumannii [3]): 16 µg/mL
